Laboratory results reported in US9365613B2, “Acylated 4-amidino- and -4-guanidinobenzylamines for inhibition of plasma kallikrein” (The Medicines Company (Leipzig) GmbH, priority 2003, dated 2016).

How the values were obtained:
Type in all cases: biochemical
[1] = target: plasma kallikrein (PK) (Homo sapiens, UniProt P03952); experiment: Determining the inhibitory constants: inhibition of PK (substrate Bzl-Pro-Phe-Arg-pNA); conditions: Tris buffer pH 8.0, 25° C.; mean of at least three determinations
Chain of plasma kallikrein (PK) (P03952 391-638 limits assumed, species assumed): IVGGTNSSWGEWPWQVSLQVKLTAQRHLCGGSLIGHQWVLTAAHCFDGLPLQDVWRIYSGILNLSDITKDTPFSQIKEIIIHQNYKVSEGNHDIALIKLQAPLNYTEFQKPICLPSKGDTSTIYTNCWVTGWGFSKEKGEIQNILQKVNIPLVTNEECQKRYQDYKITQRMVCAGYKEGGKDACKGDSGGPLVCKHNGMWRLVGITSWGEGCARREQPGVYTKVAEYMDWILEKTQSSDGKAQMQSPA
Chain of plasma kallikrein (PK) (P03952 20-390 partner limits assumed, species assumed): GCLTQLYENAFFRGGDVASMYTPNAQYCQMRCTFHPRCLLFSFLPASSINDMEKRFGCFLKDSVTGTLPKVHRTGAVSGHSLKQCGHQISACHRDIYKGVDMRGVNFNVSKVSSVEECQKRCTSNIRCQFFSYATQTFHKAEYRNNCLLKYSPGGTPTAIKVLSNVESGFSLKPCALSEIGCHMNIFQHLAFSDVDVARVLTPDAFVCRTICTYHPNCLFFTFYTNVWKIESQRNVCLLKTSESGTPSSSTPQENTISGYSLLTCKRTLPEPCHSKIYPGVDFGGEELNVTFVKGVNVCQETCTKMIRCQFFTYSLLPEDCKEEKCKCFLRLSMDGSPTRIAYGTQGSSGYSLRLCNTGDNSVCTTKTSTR
Protocol: (§1) The inhibitory effect for the individual enzymes was determined in analogy with a method which has already been described (Stürzebecher et al., J. Med. Chem. 40, 3091-3099, 1997).
(§2) After 3 min, the reaction was terminated by adding 25 μl of acetic acid (50%) and the absorption at […] was determined using a Microplate Reader (Labsystems iEMS Reader MF). The Ki values were determined, in accordance with Dixon (Biochem. J. 55, 170-171, 1953), by means of linear regression and using a computer program. The Ki values are the mean of at least three determinations.

[2] = target: T1, human factor XIIa (Homo sapiens, UniProt P00748); experiment: Inhibitory constants for factor XIIa (substrate H-D-HHT-Gly-Arg-pNA, Chromozym XII); conditions: read-out: Ki F XIIa
T1 construct: purchased Haemochrom Diagnostica GmbH, Essen, Germany
T1 sequence (P00748 373-615 limits assumed, other chains not shown): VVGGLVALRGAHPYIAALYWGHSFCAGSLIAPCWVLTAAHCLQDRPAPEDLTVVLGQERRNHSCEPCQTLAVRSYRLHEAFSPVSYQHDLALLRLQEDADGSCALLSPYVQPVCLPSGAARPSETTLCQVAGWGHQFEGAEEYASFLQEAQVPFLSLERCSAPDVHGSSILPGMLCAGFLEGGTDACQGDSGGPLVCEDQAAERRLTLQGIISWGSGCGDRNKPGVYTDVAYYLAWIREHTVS
Protocol: as §1, §2
(§3) The inhibition of factor XIa and factor XIIa was determined in an analogous manner. When determining the inhibitory constants for human factor XIa (Haemochrom Diagnostica GmbH, Essen, Germany), H-D-Lys(Z)-Pro-Arg-pNA (Chromozym PCa, Roche Diagnostics GmbH, Mannheim, Germany) was used as the substrate.
H-D-HHT-Gly-Arg-pNA (Chromozym XII, Roche Diagnostics GmbH, Mannheim, Germany) was used as the substrate for measuring the inhibitory constants of human factor XIIa (Haemochrom Diagnostica GmbH, Essen, Germany).

[3] = target: T2, human factor XIa (Homo sapiens, UniProt P03951); experiment: Inhibitory constants for factor XIa (substrate H-D-Lys(Z)-Pro-Arg-pNA, Chromozym PCa); conditions: read-out: Ki F XIa
T2 construct: purchased Haemochrom Diagnostica GmbH, Essen, Germany
T2 sequence (P03951 388-625 limits assumed): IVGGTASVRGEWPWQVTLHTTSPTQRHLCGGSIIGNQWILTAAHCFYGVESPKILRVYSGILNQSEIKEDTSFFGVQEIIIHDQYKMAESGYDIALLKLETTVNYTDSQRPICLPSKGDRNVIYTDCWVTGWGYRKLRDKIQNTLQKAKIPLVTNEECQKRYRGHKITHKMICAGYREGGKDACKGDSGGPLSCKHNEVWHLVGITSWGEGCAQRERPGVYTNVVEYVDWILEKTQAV
T2 sequence (P03951 19-387 partner limits assumed): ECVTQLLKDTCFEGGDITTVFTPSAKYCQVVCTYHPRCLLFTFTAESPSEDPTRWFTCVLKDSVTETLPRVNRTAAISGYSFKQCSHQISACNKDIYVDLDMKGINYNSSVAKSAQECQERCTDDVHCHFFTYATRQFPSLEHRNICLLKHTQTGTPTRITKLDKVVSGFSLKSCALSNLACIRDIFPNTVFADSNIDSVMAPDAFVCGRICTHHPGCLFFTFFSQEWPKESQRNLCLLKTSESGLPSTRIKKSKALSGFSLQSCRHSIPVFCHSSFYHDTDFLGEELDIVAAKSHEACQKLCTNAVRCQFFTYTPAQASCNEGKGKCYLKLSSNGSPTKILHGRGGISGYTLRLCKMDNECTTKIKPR
Protocol: as §1, §2, §3

[4] = target: thrombin (UniProt P00735); experiment: Inhibitory constants for thrombin; conditions: read-out: Ki Thrombin

SMILES | Ki [1] [µM] | Ki [2] [µM] | Ki [3] [µM] | Ki [4] [µM]
N=C(N)c1ccc(CNC(=O)CNC(=O)[C@@H](CCc2ccccc2)NS(=O)(=O)Cc2ccccc2)cc1 [Inhibitor 76] | 0.39 | 0.15 | 0.27 | 
COC(=O)c1ccc(CS(=O)(=O)N[C@H](Cc2cccc(C(=N)N)c2)C(=O)NCC(=O)NCc2ccc(C(=N)N)cc2)cc1 [Inhibitor 84] | 0.14 | 0.38 | 0.7 | 0.53
N=C(N)c1ccc(CNC(=O)CNC(=O)[C@@H](CCc2ccc(O)cc2)NS(=O)(=O)Cc2ccccc2)cc1 [Inhibitor 75] | 0.12 | 0.78 | 0.61 | 
C[C@@H](OCc1ccccc1)[C@H](NC(=O)[C@@H](CO)NS(=O)(=O)Cc1ccccc1)C(=O)NCc1ccc(C(=N)N)cc1 [Inhibitor 14] | 0.091 | 23 | 0.33 | 0.3
CC(C)(C)OC[C@@H](NS(=O)(=O)Cc1ccccc1)C(=O)N[C@@H](CC(=O)O)C(=O)NCc1ccc(C(=N)N)cc1 [Inhibitor 29] | 0.91 | > 1000 | 0.39 | 6
CC(C)(C)OC[C@@H](NS(=O)(=O)Cc1ccc(C(=O)O)cc1)C(=O)N1CCC[C@H]1C(=O)NCc1ccc(C(=N)N)cc1 [Inhibitor 70] | 0.025 | 2.4 |  | 0.0023
N=C(N)c1ccc(CNC(=O)CNC(=O)[C@@H](CCc2ccccc2)NS(=O)(=O)Cc2ccc(N)cc2)cc1 [Inhibitor 78] | 0.045 | 0.26 | 0.12 | 
N=C(N)c1ccc(CNC(=O)[C@H](CCCCNC(=O)CCC(=O)O)NC(=O)[C@@H](CC2CCCCC2)NS(=O)(=O)Cc2ccccc2)cc1 [Inhibitor 71] | 0.029 | 11 |  | 0.0021
N=C(N)c1ccc(CNC(=O)[C@H](CC(=O)O)NC(=O)[C@@H](CO)NS(=O)(=O)Cc2ccccc2)cc1 [Inhibitor 4] | 3.7 | > 1000 |  | > 1000
N=C(N)c1ccc(CNC(=O)[C@H](CO)NC(=O)[C@@H](CCc2ccc(O)cc2)NS(=O)(=O)Cc2ccccc2)cc1 [Inhibitor 73] | 0.13 | 0.28 | 0.078 | 
C[C@@H](O)[C@H](NC(=O)[C@@H](COC(C)(C)C)NS(=O)(=O)Cc1ccccc1)C(=O)NCc1ccc(C(=N)N)cc1 [Inhibitor 38] | 0.032 | 14 |  | 0.044
N=C(N)c1ccc(CNC(=O)[C@H](CCCCNC(=O)CCCC(=O)O)NC(=O)[C@@H](CO)NS(=O)(=O)Cc2ccccc2)cc1 [Inhibitor 86] | 0.39 |  |  | 2.8
N=C(N)c1ccc(CNC(=O)[C@H](CCC(=O)O)NC(=O)[C@@H](CCc2ccc(O)cc2)NS(=O)(=O)Cc2ccccc2)cc1 [Inhibitor 72] | 0.22 | 0.36 | 0.028 | 
N=C(N)c1ccc(CNC(=O)CNC(=O)C(CCc2ccncc2)NS(=O)(=O)Cc2ccccc2)cc1 (stereo not drawn) [Inhibitor 85] | 0.13 | 0.4 | 1.1 | 

The next molecules have a lower Ki [1] than those just listed; values first:

Ki [1] [µM] | Ki [2] [µM] | Ki [3] [µM] | Ki [4] [µM] | SMILES
0.019 | 6.8 |  | 0.038 | CC(C)(C)OC[C@@H](NS(=O)(=O)Cc1ccccc1)C(=O)N[C@@H](CCONC(=N)N)C(=O)NCc1ccc(C(=N)N)cc1 [Inhibitor 68]
0.0094 | 5.4 | 0.48 | 0.024 | CC(C)(C)OC[C@@H](NS(=O)(=O)Cc1ccccc1)C(=O)N[C@@H](CCCCNC(=O)OCc1ccccc1)C(=O)NCc1ccc(C(=N)N)cc1 [Inhibitor 36]
0.014 | 61 |  | 0.12 | CC(C)(C)OC[C@@H](NS(=O)(=O)Cc1ccccc1)C(=O)N[C@@H](Cc1c[nH]cn1)C(=O)NCc1ccc(C(=N)N)cc1 [Inhibitor 64]
0.011 | 6.1 |  | 0.0029 | CC(C)(C)OC[C@@H](NS(=O)(=O)Cc1ccccc1)C(=O)N[C@@H](CCCCNC(=O)C(F)(F)F)C(=O)NCc1ccc(C(=N)N)cc1 [Inhibitor 62]
0.016 | 4 |  | 0.0018 | CC(C)(C)OC[C@@H](NS(=O)(=O)Cc1ccc(CC(=O)O)cc1)C(=O)N1CCC[C@H]1C(=O)NCc1ccc(C(=N)N)cc1 [Inhibitor 66]
0.02 | > 1000 |  | 8.5 | N=C(N)c1ccc(CNC(=O)C[C@H](CO)NC(=O)[C@@H](CO)NS(=O)(=O)Cc2ccccc2)cc1 [Inhibitor 17]
0.02 | 1.6 |  | 0.91 | N=C(N)c1ccc(CNC(=O)[C@H](CO)NC(=O)[C@@H](CCc2ccncc2)NS(=O)(=O)Cc2ccccc2)cc1 [Inhibitor 69]
